# Experimental data: patent publication US7101896B2, “Pharmaceutical compositions and methods for use” (Targacept, Inc., priority 1999, dated 2006)
# pKi: −log10 of the molar value.
# Target: CNS nicotinic receptors (Rattus norvegicus, UniProt P09483+P12390)
# Test: Determination of binding to relevant receptor sites
# Conditions: calculated from the IC50 values using the method of Cheng et al.; techniques of U.S. Pat. No. 5,597,919; read-out: Ki (inhibition constant, receptor binding)
# Sequence of CNS nicotinic receptors (P09483 31-630): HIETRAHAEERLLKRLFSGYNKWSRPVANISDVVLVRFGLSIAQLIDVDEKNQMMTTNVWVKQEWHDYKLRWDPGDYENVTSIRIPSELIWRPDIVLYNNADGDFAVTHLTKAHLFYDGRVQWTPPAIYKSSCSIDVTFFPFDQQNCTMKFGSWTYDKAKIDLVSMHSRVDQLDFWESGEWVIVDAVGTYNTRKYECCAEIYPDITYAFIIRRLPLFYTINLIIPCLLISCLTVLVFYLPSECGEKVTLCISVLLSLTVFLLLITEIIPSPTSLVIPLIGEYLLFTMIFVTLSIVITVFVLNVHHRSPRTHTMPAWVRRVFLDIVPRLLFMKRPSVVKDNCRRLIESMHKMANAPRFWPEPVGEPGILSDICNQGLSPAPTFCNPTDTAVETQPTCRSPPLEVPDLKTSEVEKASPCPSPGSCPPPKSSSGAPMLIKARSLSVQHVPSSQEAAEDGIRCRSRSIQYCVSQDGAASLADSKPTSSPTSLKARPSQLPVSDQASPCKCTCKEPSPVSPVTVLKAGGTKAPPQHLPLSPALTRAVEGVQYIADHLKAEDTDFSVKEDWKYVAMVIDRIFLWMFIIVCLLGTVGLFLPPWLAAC
# Sequence of CNS nicotinic receptors (P12390 25-500): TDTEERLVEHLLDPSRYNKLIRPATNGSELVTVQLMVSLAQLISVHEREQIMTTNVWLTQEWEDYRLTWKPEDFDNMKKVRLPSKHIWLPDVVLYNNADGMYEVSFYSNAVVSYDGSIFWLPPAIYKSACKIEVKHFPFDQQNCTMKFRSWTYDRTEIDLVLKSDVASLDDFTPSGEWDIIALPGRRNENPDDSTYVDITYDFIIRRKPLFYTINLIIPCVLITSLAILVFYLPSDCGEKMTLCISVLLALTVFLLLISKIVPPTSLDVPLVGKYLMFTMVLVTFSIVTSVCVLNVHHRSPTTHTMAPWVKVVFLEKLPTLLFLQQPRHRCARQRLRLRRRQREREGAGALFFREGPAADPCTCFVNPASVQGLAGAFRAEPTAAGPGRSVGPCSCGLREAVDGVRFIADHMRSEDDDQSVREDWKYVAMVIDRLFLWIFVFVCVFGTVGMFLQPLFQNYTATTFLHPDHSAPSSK
row,Molecule,pKi
1,"(E,S)-3-cyclopentyloxy-5-(pyrrolidin-2-ylvinyl)pyridine hemigalactarate [Sample No. 19]",7.29
2,(S)-3-(3-pyridyloxy)-5-(pyrrolidin-2-ylethynyl)pyridine hemigalactarate [Sample No. 15],7.89
3,(S)-3-(4-methoxyphenoxy)-5-(pyrrolidin-2-ylethynyl)pyridine hemigalactarate [Sample No. 10],7.48
4,(S)-3-(phenoxyphenyl)-5-(pyrrolidin-2-ylethynyl)pyridine hemigalactarate [Sample No. 9],6.28
5,(S)-3-(pyrrolidin-2-ylethynyl)-5-(tetrahydropyran-4-yloxy)pyridine hemigalactarate [Sample No. 16],8.15
6,(S)-3-isopropoxy-5-(pyrrolidin-2-ylethynyl)pyridine hemigalactarate [Sample No. 7],8.70
7,(S)-(E)-3(2-pyrrolidin-2-ylvinyl)pyridine hemigalactarate [Sample No. 2],6.51

# Same assay, conditions: read-out: Ki (inhibition constant, receptor binding)
row,Molecule,pKi
1,"Oc1ccc(Oc2cncc(C#C[C@@H]3CCCN3)c2)cc1 [Sample No. 11, (S)-3-(4-hydroxyphenoxy)-5-(pyrrolidin-2-ylethynyl)pyridine]",8.70
